Data from patent publication US8053413B2, “Methods for treating sleep disorders by cholecystokinin (CCK) receptor B antagonists” (The Board of Trustees of the University of Illinois, priority 2005, dated 2011).

What was measured:
central apneas = settings: rats with frequent central apneas during all sleep stages; cited from earlier work
sleep apnea = settings: cited from earlier work
[1] = system: sleep apnea (OSAS, central apnea); settings: cited from earlier work; for effect in individuals with obstructive sleep apnea (OSAS) / effect in individuals with central apnea: patients; for effect in individuals with central apnea: primarily central apneas
[2] = system: spontaneous sleep apnea in the rat; experiment: Spontaneous sleep apnea in the rat: plethysmograph, EEG and EMG recording after i.p. injection; type: in vivo, Sprague-Dawley rats; settings: for efficacy against sleep apnea (rate of apneas per hour of NREM and REM sleep): 6 hours polygraphic recording, i.p.; for SP apnea index, % of placebo value: spontaneous (SP) apneas, p<0.03
Description: Adult, male Sprague-Dawley rats (Sasco-King, Wilmington, Mass.), usually 8 per test group with an average weight of 300 grams, are maintained on a 12-hour light/12-hour dark cycle for one week. The animals are housed in individual cages and given ad libitum access to food and water. Following the one week of acclimatization, animals are subjected to the following surgical procedures.
Acclimatized animals are anesthetized using a mixture of ketamine (80 mg/kg) and xylazine (5 mg/kg) at a volume of 1 ml/kg body weight for the implantation of cortical electrodes for electroencephalogram (EEG) recording and neck muscle electrodes for electromyogram (EMG) recording. The surface of the skull is exposed surgically and cleaned with a 20% solution of hydrogen peroxide followed by a solution of 95% isopropyl alcohol. A dental preparation of sodium fluoride (FLURA-GEL; Saslow Dental, Mt. Prospect, Ill.) is subsequently applied to harden the skull above the parietal cortex and allowed to remain in place for 5 minutes. The fluoride mixture is then removed from the skull above the parietal cortex. The EEG electrodes consisting of four stainless steel machine screws, having leads attached thereto, are threaded into the skull to rest on the dura over the parietal cortex. A thin layer of JUSTI resin cement (Saslow Dental, Mt. Prospect, Ill.) is applied to cover the screw heads (of screws implanted in the skull) and surrounding skull to further promote the adhesion of the implant. EMG electrodes consisting of two ball-shaped wires are inserted into the bilateral neck musculature. All leads (i.e., EEG and EMG leads) are soldered to a miniature connector (39F1401; Newark Electronics, Schaumburg, Ill.). The entire assembly is subsequently fixed to the skull with dental cement.
Physiological parameters from each animal prepared as described herein are recorded on two to five occasions in random order, with recordings for an individual animal separated by at least 3 days. Fifteen minutes prior to each recording an animal receives a systemic injection (1 mL/kg intraperitoneal bolus) of either saline (control) or an active dose of a drug treatment.
Respiration is recorded by placing each animal, unrestrained, inside a single chamber plethysmograph (PLYUNIR/U; Buxco Electronics, Sharon, Conn.; dimension 6 inches×10 inches×6 inches) ventilated with a bias flow of fresh room air at a rate of 2 Liters/minute. A cable plugged onto the animal's connector and passed through a sealed port is used to collect the bioelectrical activity from the head implant.
Sleep and waking states are assessed using conventional software (Benington, et al. (1994) Sleep 17:28-36) to analyze the biparietal EEG and nuchal EMG signals on 10-second epochs. The software discriminates wakefulness (W) as a high frequency low amplitude EEG with a concomitant high EMG tone, NREM sleep by increased spindle and […] activity together with decreased EMG tone, and REM sleep by a […] activity and an absence of EMG tone. Sleep efficiency is measured as the percentage of total recorded epochs staged as NREM or REM sleep.
An accepted physiological animal model of spontaneous sleep apnea in the rat (see Radulovacki & Carley (2002) In: Sleep-Related Breathing Disorder: Experimental Models and Therapeutic Potential (Carley & Radulovacki, eds.) Marcel Dekker: New York, pp. 3-16) is used to assess the effects of test drugs. More specifically, sleep apneas, defined as cessation of respiratory effort for at least 2.5 seconds, are scored for each recording session and associated with the stage of sleep in which they occur (i.e., NREM or REM sleep). The duration requirement of 2.5 seconds represents at least two “missed” breaths, which is therefore analogous to a 10 second apnea duration requirement in humans, which also reflects two to three missed breaths. […]

[3] = system: CCK-induced depolarization of nodose ganglion neurons; settings: isolated nodose ganglion cells; cited from earlier work
[4] = individuals with obstructive sleep apnea

## COc1cc(N)c(Cl)cc1C(=O)N[C@H]1CN2CCC1CC2 [R-zacopride]
Central apneas
  apnea frequency: reduce apnea frequency

## Nc1ncnc2c1ncn2[C@@H]1O[C@H](CO)[C@@H](O)[C@H]1O [adenosine]
Sleep apnea
  reduction of apnea in an animal model of sleep apnea: somewhat effective in reducing apnea

## CNCCCC1c2ccccc2C=Cc2ccccc21 [protriptyline]
[1]
  effect in individuals with obstructive sleep apnea (OSAS): variable results
[1]; several small trials in individuals with OSAS
  side effects: frequent and significant side effects

## Cc1cccc(NC(=O)N[C@@H]2N=C(c3ccccc3)c3ccccc3N(C)C2=O)c1 [L-365,260]
[2]; rats
  efficacy against sleep apnea (rate of apneas per hour of NREM and REM sleep): dose-dependent efficacy
[3]
  potency in blocking CCK-induced depolarization of nodose ganglion neurons: less potent

## Cc1cc(C)c(NC(=O)C[C@H](CC(=O)O)c2cccc3ccccc23)c(C(=O)N2CCC3(CCCC3)CC2)c1 [CR2945]
[2]; 0.5 mg/kg i.p. in DMSO, rats
  SP apnea index, % of placebo value: 42%
[2]; 5.0 mg/kg i.p. in DMSO, rats
  SP apnea index, % of placebo value: 31%
[2]; all four doses 0.005, 0.05, 0.5, 5.0 mg/kg i.p., p<0.04 for each
  REM SP apnea index: significantly reduced
[2]; all sleep stages, rats, systemic injection
  frequency of spontaneous central apnea expression: significantly reduced
[2]; any dose 0.005-5.0 mg/kg i.p., p=0.7
  apnea duration: not affected

## Cn1c(=O)c2[nH]cnc2n(C)c1=O [theophylline]
[1]
  effect in individuals with obstructive sleep apnea (OSAS): of no use
  effect in individuals with central apnea: may benefit

## Cc1nccn1CC1CCc2c(c3ccccc3n2C)C1=O (centres unmarked) [ondansetron]
[1]
  effect in individuals with obstructive sleep apnea (OSAS): failed to demonstrate any effect
Central apneas
  apnea frequency: reduce apnea frequency

## O=C1CC2(CCCC2)CC(=O)N1CCCCN1CCN(c2ncccn2)CC1 [Buspirone]
[1]; one child
  post-surgical apneustic breathing: eliminate post-surgical apneustic breathing
[1]; patients with sleep apnea syndrome
  patients with reduced apnea index: 4 of 5

## CCCCCN(CCCCC)C(=O)C(CCC(=O)O)NC(=O)c1ccc(Cl)c(Cl)c1 (centres unmarked) [lorglumide]
[2]; rats
  efficacy against sleep apnea (rate of apneas per hour of NREM and REM sleep): dose-dependent efficacy

## medroxyprogesterone
[1]
  effect in individuals with obstructive sleep apnea (OSAS): no consistent benefit

## CCN1CC(CCN2CCOCC2)C(c2ccccc2)(c2ccccc2)C1=O (centres unmarked) [doxapram]
[1]; [4]
  average arterial oxygen saturation: does not alter
  length of apneas: decreasing the length of apneas

## CCCCCc1cc(O)c2c(c1)OC(C)(C)[C@@H]1CCC(C)=C[C@@H]21 [Δ9-tetrahydrocannibinol]
Sleep apnea
  reduction of apnea in an animal model of sleep apnea: reduce sleep apneas

## CN1C(=O)[C@@H](NC(=O)c2cc3ccccc3[nH]2)N=C(c2ccccc2)c2ccccc21 [devazepide]
[2]; rats
  efficacy against sleep apnea (rate of apneas per hour of NREM and REM sleep): dose-dependent efficacy
[3]
  potency in blocking CCK-induced depolarization of nodose ganglion neurons: highly potent

## CN1CCN2c3ncccc3Cc3ccccc3C2C1 (centres unmarked) [mirtazapine]
[1]; one study of OSAS patients
  reduction of apnea frequency: 50%
Central apneas
  apnea frequency: reduce apnea frequency

## CC(=O)Nc1nnc(S(N)(=O)=O)s1 [acetazolamide]
[1]
  effect in individuals with obstructive sleep apnea (OSAS): increase in obstructive apneas
  effect in individuals with central apnea: variable improvement

## C=CCN1CC[C@]23c4c5ccc(O)c4O[C@H]2C(=O)CC[C@@]3(O)[C@H]1C5 [naloxone]
[1]
  effect in individuals with obstructive sleep apnea (OSAS): only slightly helpful
